Tests used:
Type in all cases: physicochemical
[1] = Hygroscopic test; details: for Ratio of change of weight: 25° C., three days; for Hygroscopic (moisture absorption) stability compared with the amorphous body: result in words
Description: (§1) As test substances, the V type crystal (Example 1), the VI type crystal (Example 2) and the amorphous body (Comparative example 1) were used.
Test substances were allowed to stand at 25° C. for three days under 7, 11, 22, 33 and 57% relative humidity, the content of moisture was measured according to Japanese pharmacopoeia, general tests, water determination method (Karl Fischer's method) and the changes of weight were calculated.

[2] = Purity stability test (storage at 60° C.); details: for Purity stability: 60° C. storage, result in words
Description: as §1
Test substance 2.2 g was put in a C2 vial made by Daiichi Glass Co., Ltd., and after the vial was filled with nitrogen gas, the vial was stored at 60° C. After the initiation of the test, the purity of each test substances was measured by high-performance liquid chromatographic method at 1 week, 2 weeks and 4 weeks later (a notice of the 340th Apr. 4, 2001 by Ministry of Health and Welfare medicinal safe directors of bureaus).

[3] = Coloration stability test (storage at 60° C.); details: for Coloration stability of exterior appearance: 60° C. storage, result in words
Description: as §1
Test substance 2.2 g was put in a C2 vial made by Daiichi Glass Co., Ltd., and after the vial was filled with nitrogen gas, the vial was stored at 60° C. After the initiation of the test, the color difference (ΔE), degree of whiteness (W) and yellowness (YI) of each test substances were measured by a color-difference meter at 1 week, 2 weeks and 4 weeks later.

[4] = Light exposure stability test; details: for By-product I / Piperacillin / Total amount of relative substances: Initiation of test
Description: As test substances, the VI type crystal (Example 2) and the amorphous body (Comparative example 1) were used.
Test substance 2.2 g was put in a C2 vial made by Daiichi Glass Co., Ltd., and after the vial was filled with nitrogen gas, the vial was radiated ([…] 1×/hr) with D65 lamp (FLR20S-D-EDL-D65/M) at 25° C.
After the initiation of the test and the radiation of […] 1×/hr, the purity of each test substances was measured by high-performance liquid chromatographic method (a notice of the 340th Apr. 4, 2001 by Ministry of Health and Welfare medicinal safe directors of bureaus).

[5] = Light exposure stability test; details: D65 lamp, 25° C., 1.20 million lx·hr
[6] = Dissolution test; details: for Dissolution time: 2.2 g in injectable water 10 mL, shaken, complete dissolution by unaided eye, mean of three, sodium monohydrate; for Dissolution compared with the amorphous body: result in words
Description: as §1
Test substance 2.2 g was put in a C2 vial made by Daiichi Glass Co., Ltd., injectable water 10 mL was added to the vial, the vial was fixed laterally and was shaken by MRK incubator-shaker (4 cm of shaking width, 48 times/minute of shaking rate).
Complete dissolution was judged by an unaided eye, and the length of time to need for the complete dissolution was measured.
The test was carried out at three times respectively, and those mean values were assumed to the dissolution time.

[7] = 60° C., 1 week, nitrogen-filled vial
[8] = 60° C., 2 weeks, nitrogen-filled vial
[9] = 60° C., 4 weeks, nitrogen-filled vial
[10] = 7% relative humidity, sodium monohydrate
[11] = 11% relative humidity, sodium monohydrate
[12] = 22% relative humidity, sodium monohydrate
[13] = 33% relative humidity, sodium monohydrate
[14] = 57% relative humidity, sodium monohydrate
[15] = 60° C., 1 week, nitrogen-filled vial, sodium monohydrate
[16] = 60° C., 2 weeks, nitrogen-filled vial, sodium monohydrate
[17] = 60° C., 4 weeks, nitrogen-filled vial, sodium monohydrate
[18] = Initiation of test, sodium monohydrate
[19] = 60° C., 1 week, sodium monohydrate
[20] = 60° C., 2 weeks, sodium monohydrate
[21] = 60° C., 4 weeks, sodium monohydrate

CCN1CCN(C(=O)N[C@@H](C(=O)N[C@@H]2C(=O)N3[C@@H]2SC(C)(C)[C@@H]3C(=O)[O-])c2ccccc2)C(=O)C1=O.[Na+] [Comparative example 1, piperacillin sodium]
Ratio of change of weight ([1]; 7% relative humidity): 2.20 w/w %
Ratio of change of weight ([1]; 11% relative humidity): 3.12 w/w %
Ratio of change of weight ([1]; 22% relative humidity): 4.99 w/w %
Ratio of change of weight ([1]; 33% relative humidity): 6.78 w/w %
Ratio of change of weight ([1]; 57% relative humidity): 11.03 w/w %
By-product I [2, 7]: 0.80
Decomposition product I [2, 7]: 0.13
Piperacillin [2, 7]: 98.27
By-product I [2, 8]: 0.97
Decomposition product I [2, 8]: 0.17
Piperacillin [2, 8]: 98.05
By-product I [2, 9]: 1.21
Decomposition product I [2, 9]: 0.30
Piperacillin [2, 9]: 97.04
By-product I ([2]; Initiation of test): 0.22
Decomposition product I ([2]; Initiation of test): 0.01
Piperacillin ([2]; Initiation of test): 99.51
Color difference (ΔE) ([3]; 60° C., 1 week): 2.76
Degree of whiteness (W) ([3]; 60° C., 1 week): 94.66
Degree of yellowness (YI) ([3]; 60° C., 1 week): 6.51
Color difference (ΔE) ([3]; 60° C., 2 weeks): 4.27
Degree of whiteness (W) ([3]; 60° C., 2 weeks): 93.29
Degree of yellowness (YI) ([3]; 60° C., 2 weeks): 8.97
Color difference (ΔE) ([3]; 60° C., 4 weeks): 5.73
Degree of whiteness (W) ([3]; 60° C., 4 weeks): 91.87
Degree of yellowness (YI) ([3]; 60° C., 4 weeks): 11.25
Degree of whiteness (W) ([3]; Initiation of test): 96.86
Degree of yellowness (YI) ([3]; Initiation of test): 2.17
By-product I [4]: 0.23
Piperacillin [4]: 99.10
Total amount of relative substances [4]: 0.90
By-product I [5]: 0.31
Piperacillin [5]: 98.86
Total amount of relative substances [5]: 1.14

CCN1CCN(C(=O)N[C@@H](C(=O)N[C@@H]2C(=O)N3[C@@H]2SC(C)(C)[C@@H]3C(=O)O)c2ccccc2)C(=O)C1=O [Example 1, piperacillin sodium monohydrate]
Dissolution time [6]: 43 s
Dissolution compared with the amorphous body [6]: dissolved in a short period of time than the amorphous body
Ratio of change of weight [1, 10]: 0 w/w %
Ratio of change of weight [1, 11]: 0.93 w/w %
Ratio of change of weight [1, 12]: 3.18 w/w %
Ratio of change of weight [1, 13]: 4.77 w/w %
Ratio of change of weight [1, 14]: 8.43 w/w %
Hygroscopic (moisture absorption) stability compared with the amorphous body ([1]; listed as V type crystal, sodium monohydrate): superior in the moisture absorption stability to the amorphous body
Purity stability [2]: stable
By-product I [2, 15]: 0.21
Decomposition product I [2, 15]: 0.03
Piperacillin [2, 15]: 99.66
By-product I [2, 16]: 0.33
Decomposition product I [2, 16]: 0.08
Piperacillin [2, 16]: 99.37
By-product I [2, 17]: 0.59
Decomposition product I [2, 17]: 0.26
Piperacillin [2, 17]: 98.62
Decomposition product I ([2]; Initiation of test): Not detected
By-product I [2, 18]: 0.04
Piperacillin [2, 18]: 99.92
Coloration stability of exterior appearance [3]: stable
Color difference (ΔE) [3, 19]: 0.60
Degree of whiteness (W) [3, 19]: 96.64
Degree of yellowness (YI) [3, 19]: 1.77
Color difference (ΔE) [3, 20]: 0.69
Degree of whiteness (W) [3, 20]: 96.55
Degree of yellowness (YI) [3, 20]: 1.96
Color difference (ΔE) [3, 21]: 1.33
Degree of whiteness (W) [3, 21]: 96.20
Degree of yellowness (YI) [3, 21]: 3.03
Degree of whiteness (W) [3, 18]: 96.45
Degree of yellowness (YI) [3, 18]: 0.94

CCN1CCN(C(=O)N[C@@H](C(=O)N[C@@H]2C(=O)N3[C@@H]2SC(C)(C)[C@@H]3C(=O)O)c2ccccc2)C(=O)C1=O [Example 2, piperacillin sodium monohydrate]
Dissolution time [6]: 50 s
Dissolution compared with the amorphous body [6]: dissolved in a short period of time than the amorphous body
Ratio of change of weight [1, 10]: 1.16 w/w %
Ratio of change of weight [1, 11]: 1.54 w/w %
Ratio of change of weight [1, 12]: 3.14 w/w %
Ratio of change of weight [1, 13]: 3.98 w/w %
Ratio of change of weight [1, 14]: 5.28 w/w %
Hygroscopic (moisture absorption) stability compared with the amorphous body ([1]; listed as VI type crystal, sodium monohydrate): superior in the moisture absorption stability to the amorphous body
Purity stability [2]: stable
By-product I [2, 15]: 0.07
Decomposition product I [2, 15]: 0.01
Piperacillin [2, 15]: 99.82
By-product I [2, 16]: 0.11
Decomposition product I [2, 16]: 0.02
Piperacillin [2, 16]: 99.75
By-product I [2, 17]: 0.11
Decomposition product I [2, 17]: 0.04
Piperacillin [2, 17]: 99.73
Decomposition product I ([2]; Initiation of test): Not detected
By-product I [2, 18]: 0.02
Piperacillin [2, 18]: 99.94
Coloration stability of exterior appearance [3]: stable
Color difference (ΔE) [3, 19]: 0.39
Degree of whiteness (W) [3, 19]: 95.64
Degree of yellowness (YI) [3, 19]: 1.35
Color difference (ΔE) [3, 20]: 0.54
Degree of whiteness (W) [3, 20]: 95.60
Degree of yellowness (YI) [3, 20]: 1.64
Color difference (ΔE) [3, 21]: 0.79
Degree of whiteness (W) [3, 21]: 95.57
Degree of yellowness (YI) [3, 21]: 2.02
Degree of whiteness (W) [3, 18]: 95.94
Degree of yellowness (YI) [3, 18]: 0.85
By-product I [4]: 0.15
Piperacillin [4]: 99.81
Total amount of relative substances [4]: 0.19
Light exposure stability ([4]; result in words): stable
By-product I [5]: 0.14
Piperacillin [5]: 99.73
Total amount of relative substances [5]: 0.27

CCN1CCN(C(=O)N[C@@H](C(=O)N[C@@H]2C(=O)N3[C@@H]2SC(C)(C)[C@@H]3C(=O)O)c2ccccc2)C(=O)C1=O [III type crystal, piperacillin sodium monohydrate]
Dissolution compared with the amorphous body [6]: dissolved in a short period of time than the amorphous body
Hygroscopic (moisture absorption) stability compared with the amorphous body ([1]; sodium monohydrate): superior in hygroscopic stability to the amorphous body
